Results as given in the supplement of paper PMC10290057.
Where a name gives a salt, the structure may show the parent alone.

Legend:
[1] = tested on: HCT116; assay: AC50 cell viability (CellTiter-Glo); higher = less potent; conditions: 48 h
[2] = tested on: HCT116; assay: efficacy (fitted maximal change in viability relative to DMSO control); higher = less cytotoxic (negative = loss of viability); conditions: 48 h
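For AC50 cell viability (CellTiter-Glo) in this document: HCT116 colorectal carcinoma cells screened at five concentrations per compound, luminescent viability scaled between DMSO wells and empty wells on each plate, curves fitted per compound.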
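For efficacy (fitted maximal change in viability relative to DMSO control) in this document: Luminescence-based viability readout, five doses per compound, normalized against on-plate DMSO and empty-well controls, followed by dose-response curve fitting for every drug.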

SMILES | AC50 cell viability [1] [µM] | efficacy [2] [%]
F\C1=C\NC(=O)NC1=O [Fluorouracil] | 10.5 | -64.4
OCCN1CCN(CCCN2c3ccccc3Sc3ccc(C(F)(F)F)cc32)CC1 [Fluphenazine hydrochloride] | 7.42 | -94.5
C[C@@H]1CC2C3C[C@H](F)C\4=C\C(=O)\C=C/[C@]4(C)[C@@]3(F)[C@@H](O)C[C@]2(C)[C@@]1(OC(=O)C5=CC=CO5)C(=O)SCF (stereo partly drawn) [Fluticasone furoate] | 20.9 | -76.9
CC(C)n1c(/C=C/[C@H](O)C[C@H](O)CC(=O)O)c(-c2ccc(F)cc2)c2ccccc21 [Fluvastatin] | 9.34 | -71.8
COc1cc2c(Oc3ccc(NC(=O)C4(C(=O)Nc5ccc(F)cc5)CC4)cc3F)ccnc2cc1OCCCN1CCOCC1 [Foretinib] | 5.9 | -101
COc1cc(Nc2ncc(F)c(Nc3ccc4c(n3)N(COP(=O)(O)O)C(=O)C(C)(C)O4)n2)cc(OC)c1OC [Fostamatinib] | 18.6 | -70.2
C[S+](=O)([O-])c1ccc(-c2nnc(/C=C/c3nnc(-c4ccc(C#N)cc4)o3)n2-c2ccccc2Cl)nc1 [G-007-LK] | 14.8 | -48.4
CN(C)c1ccccc1CN1CCCN(Cc2ccccc2N(C)C)C1c1ccncc1 [GANT-61] | 18.6 | -88.6
O=C(Nc1ccnc(NC(=O)C2CC2)c1)c1c(Cl)cccc1Cl [GDC-046] | 2.35 | -79.8
CC1(C)OCCn2c1nc1c(N3CCOCC3)nc(-c3cnc(N)nc3)nc12 [GDC-0084] | 0.833 | -58.4
CC(C)n1ncnc1-c1cn2c(n1)-c1ccc(O[C@@H](C)C(N)=O)cc1OCC2 [GDC-0326] | 6.61 | -72.2
CCNC(=O)Nc1ccc(-c2nc3c(c(N4CCOC[C@@H]4C)n2)CCN(C2COC2)C3)cc1 [GDC-0349] | 3.32 | -46.9
O=C(NOCCO)c1ccc2cncn2c1Nc1ccc(I)cc1F [GDC-0623] | 11.8 | -43.9
Cc1c(CN2CCN(C(=O)[C@H](C)O)CC2)sc2c(N3CCOCC3)nc(-c3cnc(N)nc3)nc12 [GDC-0980] | 0.525 | -57.1
CN(C)C1=C(Br)C=C(C=C1)C\2NC3=C(\C4=C2C(=O)CC(C)(C)C4)C5=CC=CC=C5C=C3 (stereo not drawn) [GLS-968] | 9.34 | -31.2
N#C/N=C(\NCCCCCCOc1ccc(Cl)cc1)Nc1ccncc1 [GMX-1778] | 0.0132 | -93.3
COC1(c2sc3c(N4CCOCC4)nc(-c4cnc(N)nc4)nc3c2C)COC1 [GNE-317] | 0.59 | -58.4
Cc1c(CN2CCN([S+](C)(=O)[O-])CC2)sc2c(N3CCOCC3)nc(-c3cnc(N)nc3)nc12 [GNE-477] | 0.59 | -57.8
Cc1nc(N)ncc1-c1nc(N2CCOCC2)c2sc(C(C)(C)O)cc2n1 [GNE-490] | 2.63 | -66.6
CC(C)(O)c1cc2nc(-c3cnc(N)nc3)nc(N3CCOCC3)c2s1 [GNE-493] | 0.833 | -55.2
O=C(NCc1ccc([S+](=O)([O-])c2cccc(C(F)(F)F)c2)cc1)c1cnc2[nH]ncc2c1 [GNE-618] | 0.0166 | -90.4
N#Cc1ccnc(Nc2cc(C3CCN(C4COC4)CC3)cc(N3CCC(F)(F)C3)n2)c1 [GNE-3511] | 0.833 | -77.1
CNc1nc(Nc2cnn([C@H]3CCN(C4COC4)C[C@@H]3F)c2Cl)ncc1C(F)(F)F [GNE-9605] | 4.68 | -51.4
NC(=O)c1cccc(-c2cc(Nc3ccc(OC(F)(F)F)cc3)ncn2)c1 [GNF-2] | 18.6 | -97.5
